Data as given in patent US6235791A, “Use of amines to produce drugs for preventing tumor cell proliferation” (Sanofi-Synthelabo, priority 1996, dated 2001).

How the values were obtained:
MDA-MB231 cells = test: tumours developed in ovariectomized nude mice from MDA-MB231 cells; type: in vivo; conditions: 500 μg SR 31747 + E2 daily intraperitoneally, to day 92
Method: The inoculation and treatment of the animals were carried out as follows:
The animals used are "nude" female athymic mice, which may or may not have been ovariectomized, obtained at 4 weeks old (R. Janvier). Before inoculating the hormone-sensitive mammary cells (MCF-7, MCF-7AZTD5), the animals receive 10 μl pf ethanolic 10 ^-5 oestradiol solution applied percutaneously. The treatment is repeated three times over one week. One million cells suspended in 100 μl of PBS/Ca are inoculated subcutaneously above each of the hips. The following day, the animals receive 200 μl of injection solution (ethanol/Tween 80/physiological saline, 1/1/18, vol/vol) containing the various reactions at the predefined concentrations. The injections are made intraperitoneally and are repeated every day.
FIGS. 1 and 2 indicate the effect of SR 31747 on tumours developed in ovariectomized "nude" mice from MDA-MB231 cells.
Each mouse receives 5×10^6 MDA-MB231 cells above each hip (i.e. 2 points of inoculation per mouse). The animals are then treated daily via the intraperitoneal route and receive 500 μg SR 31747+0.003 μg E2 (20 mice). The control batch receives 0.0003 μg E2 (20 mice). The amount (as a percentage of inoculated tumours) and size of the tumours developed are determined at different times in the course of the treatment. At the end of the treatment (day 92), the animals are sacrificed and weighed. […]

[1] = tested on: human lung carcinoma A549; test: MTT colorimetric proliferation test, 5 days; type: cell-based; conditions: 120 h, read-out: percentage of cell proliferation relative to the untreated control taken as 100%
Method: (§1) Among other cells used, the following lines were routinely cultured in RPMI medium supplemented with 10% foetal calf serum (FCS):
human lung carcinoma A549
(§2) The antitumour activity is measured according to the colorimetry method using MTT, 3-(4,5-dimethylthiazole-2,5-diphenyltetrazolium) bromide as described by Mosmann T., Journ. of Im. Methods; 1983, 65, 55.
(§3) This colorimetric assay makes it possible to measure quantitatively the antitumour activity of a solution containing a compound used according to the invention.
(§4) According to the procedure used, the suspended cells (such as the myeloma cells) are inoculated at 2×10^3 cells/ml in 1 ml wells in defined medium. The adherent cells (such as the MCF-7 cells) are inoculated at 5×10^4 cells/ml in 1 ml wells in RPMI medium+0.5% FCS overnight. The next day, the cell carpet is washed twice and replaced by the defined medium.
(§5) The defined medium corresponds to: RPMI+10 μg/ml insulin+10 μg/ml human transferrin.
(§6) In order to carry out this test, cells are maintained in the presence of the solution containing a compound used according to the invention for 5 days, and the MTT is then added to the culture medium.
(§7) The 5 day period which was selected corresponds to the optimum time for the activity. After culturing for 5 days, the proliferation of the cells is measured by the test described above. The optical density at 570 nm is measured. A blue coloration develops in the wells where the cells are still alive. The intensity of the coloration is proportional to the quantity of live cells.

[2] = tested on: human mammary carcinoma MCF-7; test: MTT colorimetric proliferation test, 5 days; type: cell-based; conditions: MCF7, 120 h, read-out: percentage of cell proliferation relative to the untreated control taken as 100%
Method: as §1
human mammary carcinoma MCF-7
as §2, §3, §4, §5, §6, §7

293 = test: MTT colorimetric proliferation test, 5 days; type: cell-based; conditions: Homo sapiens, read-out: percentage of cell proliferation relative to the untreated control taken as 100%
Method: as §1
human kidney carcinoma 294
as §2, §3, §4, §5, §6, §7

SN 47 p4 normal cells = test: proliferation of mammary epithelial cells, IC50 after 6 days; type: cell-based; conditions: Epithelial cell, 144 h, 6 days of treatment
Method: (§8) Another study was also performed in order to determine the effect of SR 31747 on the in vitro and in vivo growth of mammary and prostate epithelial tumour cells.
(§9) The study consisted in evaluating the potential antitumour activity of SR 31747 on the growth of a variety of cancerous breast epithelial lines. The study is carried out in vitro on cell cultures, as well as in vivo after inoculation of tumoral mammary lines in "nude" athymic mice.
(§10) Table B--Effect of SR 31747 on the proliferation of mammary epithelial cells. Determination of the IC50 after 6 days of treatment--medium changed every 48 hours

MCF7 + E2 10-9M = test: proliferation of mammary epithelial cells, IC50 after 6 days, with oestradiol; type: cell-based, human; conditions: for IC50: MCF7 + E2 10^-9M, 0.5% FCS, 6 days of treatment
Method: as §8, §9
(§11) The cell lines which were used are as follows:
(§12) The hormone-sensitive MCF-7 line originates from a pleural effusion of a breast adenocarcinoma. The antioestrogen-resistant MCF-7LY2 cells were obtained from the MCF-7LCC1 and MCF-7LCC2 lines were developed in nude mice, after inoculation of the MCF-7 cells. The two lines are oestrogen-independent. The MCF-7CC2 cells are also antioestrogen-resistant. The MCF-7AZTD5 line is derived from the MCF-7 line after stable transfection with the H-ras oncogene. The MCF-7AZTD5 cells are antioestrogen-resistant in vitro. All of these lines are maintained on DMEM/F12 (1/1, vol/vol) containing 10% decomplemented foetal calf serum and 16 ng/ml of human insulin. The MCF-7LCC2 line is cultured in the permanent presence of 10^-7 M hydroxytamoxifen. The MDA-MB231 tumoral mammary epithelial cells are oestrogen- and antioestrogen-insensitive. They are cultured in L15 medium supplemented with 10% FCS, 1% essential amino acids and 10 μg/ml of human insulin.
All the lines are maintained at 37° C. in a humid air/CO2 (95%/5%) atmosphere, except for the MDA-MB231 cells which are cultured in the absence of CO2. THe cell lines are checked regularly free of mycoplasms.
as §10

[3] = tested on: mammary tumoral epithelial cells; test: proliferation of tumoral breast epithelial lines, summary statements; type: cell-based
Method: as §8, §9, §11
as §12, with “They are cultured in L15 medium supplemented with 10% FCS, 1% essential amino acids and 10 μg/ml of human insulin.” left out

CCN(C/C=C\c1ccc(C2CCCCC2)c(Cl)c1)C1CCCCC1 [SR 31747, cis-N-Cyclohexyl-N-ethyl [3-(3-chloro-4-cyclo-hexylphenyl)allyl]amine]
size, weight and frequency of tumours developed (MDA-MB231 cells): tendency to reduce the size, weight and frequency of tumours
activity at 10 pM ([1]; A549, 10 pM): 100%
activity at 0.0001 µM ([1]; A549, 100 pM): 88%
activity at 0.001 µM ([1]; A549, 1 nM): 56%
activity at 0.01 µM ([1]; A549, 10 nM): 50%
activity at 0.1 µM ([1]; A549, 100 nM): 38%
activity at 1 µM ([1]; A549, 1 μM): 14%
activity at 10 µM ([1]; A549, 10 μM): 10%
activity at 10 pM ([2]; MCF-7, 10 pM): 100%
activity at 0.0001 µM ([2]; MCF-7, 100 pM): 100%
activity at 0.001 µM ([2]; MCF-7, 1 nM): 83%
activity at 0.01 µM ([2]; MCF-7, 10 nM): 75%
activity at 0.1 µM ([2]; MCF-7, 100 nM): 58%
activity at 1 µM ([2]; MCF-7, 1 μM): 34%
activity at 10 µM ([2]; MCF-7, 10 μM): 5%
activity at 10 pM (293; HEK293, 120 h, 293, 10 pM): 100%
activity at 0.0001 µM (293; HEK293, 120 h, 293, 100 pM): 84%
activity at 0.001 µM (293; HEK293, 120 h, 293, 1 nM): 80%
activity at 0.01 µM (293; HEK293, 120 h, 293, 10 nM): 43%
activity at 0.1 µM (293; HEK293, 120 h, 293, 100 nM): 36%
activity at 1 µM (293; HEK293, 120 h, 293, 1 μM): 10%
activity at 10 µM (293; HEK293, 120 h, 293, 10 μM): 7%
IC50 (SN 47 p4 normal cells; 0.5% FCS): 400 nM
IC50 (SN 47 p4 normal cells; 10% FCS): > 10000 nM
IC50 (MCF7 + E2 10-9M; Homo sapiens, MCF7, 144 h): 400 nM
IC50 (MCF7 + E2 10-9M): 300 nM
reversal of the stimulatory action of oestradiol (MCF7 + E2 10-9M; hormone-sensitive MCF-7 line): incapable of reversing the stimulatory action of oestradiol
inhibition of cell proliferation at high concentration (cytotoxic effects) ([3]; 10^-6 M and occasionally 10^-7 M SR 31747): virtually total inhibitions of the cell proliferation
action on the proliferation of tumor epithelial lines ([3]; reduced concentrations of saline (serum)): exerts an inhibitory action on the proliferation of all the tumor epithelial lines tested
